In patent US7332507B2, “3-substituted quinuclidines and their use” (Neurosearch A/S, priority 2002, dated 2008):
pIC50: −log10 of the molar value. Where a name gives a salt, the structure may show the parent alone.

Target: T1, α7-subtype of nicotinic receptors (Rattus norvegicus, UniProt Q05941)
T1 construct: Cerebral cortices from male Wistar rats (150-250 g) are homogenised; from tissue; host or cells: rat cerebral cortex membrane homogenate (male Wistar rats)
Assay: In vitro inhibition of 3H-α-bungarotoxine binding in rat brain
Details: rat cerebral cortex homogenate; 3H-α-bungarotoxine 2 nM; 2 hours at 37° C.

T1 sequence (Q05941 23-502): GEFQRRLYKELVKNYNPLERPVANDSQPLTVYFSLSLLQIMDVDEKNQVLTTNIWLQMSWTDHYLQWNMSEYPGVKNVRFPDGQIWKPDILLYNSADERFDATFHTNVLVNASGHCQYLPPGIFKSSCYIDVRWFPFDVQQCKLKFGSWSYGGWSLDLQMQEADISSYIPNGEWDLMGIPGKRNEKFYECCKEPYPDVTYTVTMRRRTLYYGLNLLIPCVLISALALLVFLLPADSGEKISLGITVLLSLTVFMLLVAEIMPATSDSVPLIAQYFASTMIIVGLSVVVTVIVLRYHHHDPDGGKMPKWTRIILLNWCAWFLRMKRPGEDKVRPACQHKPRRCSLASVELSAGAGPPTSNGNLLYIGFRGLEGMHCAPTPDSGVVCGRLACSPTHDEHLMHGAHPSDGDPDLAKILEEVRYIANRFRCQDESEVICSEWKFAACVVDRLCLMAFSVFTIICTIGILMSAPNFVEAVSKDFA

c1ccc2c(c1)ncn2C1CN2CCC1CC2 (racemic) [Compound A1, (±)-3-(1-Benzimidazolyl)-quinuclidine fumaric acid salt]
pIC50: 6.40
